What is called IC50 is the midpoint of a concentration-inhibition curve. One may read the inhibition as how much of the control response was suppressed.

Experimental findings from US20260284028A1, “FUSED BICYCLIC HETEROCYCLYL COMPOUNDS AS CCR4 MODULATORS” (AURIGENE ONCOLOGY LIMITED, priority 2023, published 2026) are described below.

The structures appear in SMILES notation.

The test addresses T1, CCR4 (Homo sapiens, UniProt P51679).
T1 construct: expressed in transfected cells; host or cells: CHO-K1
T1 sequence (P51679 1-360): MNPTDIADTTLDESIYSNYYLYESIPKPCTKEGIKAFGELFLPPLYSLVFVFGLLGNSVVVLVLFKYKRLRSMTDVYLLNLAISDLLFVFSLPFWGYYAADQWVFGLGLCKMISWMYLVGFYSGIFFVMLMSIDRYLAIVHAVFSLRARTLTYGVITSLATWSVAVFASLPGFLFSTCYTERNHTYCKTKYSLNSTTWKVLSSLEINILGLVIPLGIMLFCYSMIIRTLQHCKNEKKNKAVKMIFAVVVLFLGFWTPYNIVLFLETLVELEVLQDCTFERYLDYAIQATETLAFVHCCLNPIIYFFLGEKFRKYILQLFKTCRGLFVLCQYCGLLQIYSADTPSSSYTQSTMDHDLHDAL
Briefly: β-Arrestin recruitment assay (CHO-K1 CCR4 β-Arrestin cells stimulated with recombinant human CCL22). The test is classed as cell-based. Conditions: CCL22 10 nM stimulation. The protocol:
CHO-K1 CCR4 β-Arrestin cells were seeded and incubated overnight at 37° C. in a CO2 incubator for adherence. Next day, cells were pretreated with various concentrations of CCR4 modulators for 30 mins at 37° C. The cells were stimulated with recombinant human CCL22 (10 nM) and further incubated for 90 mins. Working detection solution was added and incubated at room temperature for 1 hour after which the chemiluminescent signal was read using a luminometer.
Exemplary compounds of the present application were screened by the above-mentioned assay and the results were tabulated.
In general terms: Arrestin recruitment assays detect the binding of arrestin to an activated receptor.

As for `C[C@@H](Nc1ncnc2nc(N3CC([C@H]4CCCN([C@H]5C[C@](C)(C(=O)O)C5)C4)C3)sc12)c1ncc(Cl)cc1Cl` [Compound 53], the IC50 (read-out: CCR4 antagonistic activity IC50 (μM) in range) lay within 0.25 to 0.5 µM. In addition, under “CHO-K1, read-out: % inhibition 30 μM (% E-Max), read-out: % inhibition at 5 μM/30 μM (% E-Max)”, the inhibition was 94%.
